Test results as given in ChEMBL document CHEMBL1144436, “1-(Phenyl)isoquinoline carboxamides: a novel class of subtype selective inhibitors of thyrotropin-releasing hormone (TRH) receptors” (Bioorg Med Chem Lett, 2005).
“And” between values parts separate entries of the source, which are not always exact repeats. Equal entries are not always repeated.

target: T1, Thyrotropin-releasing hormone receptor (Mus musculus) (UniProt P21761); assay: Displacement of [3H]MeTRH from Thyrotropin releasing hormone receptor 1 was measured; expressed as %
T1 sequence (whole entry): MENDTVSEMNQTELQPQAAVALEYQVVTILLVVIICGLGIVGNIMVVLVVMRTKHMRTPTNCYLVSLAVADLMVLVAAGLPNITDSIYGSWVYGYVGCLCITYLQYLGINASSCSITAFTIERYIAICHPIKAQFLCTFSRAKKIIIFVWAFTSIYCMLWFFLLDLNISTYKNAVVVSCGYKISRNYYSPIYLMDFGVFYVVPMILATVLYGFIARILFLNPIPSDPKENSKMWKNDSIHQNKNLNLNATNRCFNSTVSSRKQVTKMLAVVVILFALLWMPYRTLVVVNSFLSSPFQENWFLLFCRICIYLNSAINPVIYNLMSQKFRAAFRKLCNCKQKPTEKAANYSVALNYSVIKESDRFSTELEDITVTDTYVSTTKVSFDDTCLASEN

Row | Competition | Compound
1 | 78% and 91% | CCCNC(=O)c1cc2ccccc2c(-c2ccccc2Cl)n1
2 | 84% and 92% | CCCCN(C)C(=O)c1cc2ccccc2c(-c2ccccc2Cl)n1
3 | 16% and 40% | CCC(C)NC(=O)c1cc2ccccc2c(-c2ccc([N+](=O)[O-])cc2)n1 (configuration not stated)
4 | 73% and 90% | CCC(C)N(C)C(=O)c1cc2ccccc2c(-c2ccccc2Cl)n1 (stereo in doubt; 10)
5 | 33% and 29% | CNC(=O)c1cc2ccccc2c(-c2ccccc2Cl)n1
6 | 21% and 31% | CCC(C)NC(=O)c1cc2ccccc2c(-c2cccc([N+](=O)[O-])c2)n1 (configuration not stated)
7 | 44% and 56% | CCC(C)N(C)C(=O)c1cc2ccccc2c(-c2ccccc2Cl)n1 (stereo in doubt)
